pEC50: −log10 of the molar value. Converted amounts (≈) assume the structure as drawn. “And” between values parts separate entries of the source, which are not always exact repeats. Equal entries are not always repeated. Where two headings read alike, the source gives them in different places.
Columns and labels:
human TLR7 = biological target: T1, human TLR7 (Homo sapiens, UniProt Q9NYK1); assay: HEK293-Blue-hTLR-7 cells assay (SEAP reporter); format: cell-based; conditions: for pEC50: HEK293-Blue-hTLR-7 cells, SEAP reporter, 20 hrs; for Ratio (EC50(prodrug)/EC50(active form)): EC50 of prodrug over EC50 of corresponding active form
T1 sequence (Q9NYK1 27-1049): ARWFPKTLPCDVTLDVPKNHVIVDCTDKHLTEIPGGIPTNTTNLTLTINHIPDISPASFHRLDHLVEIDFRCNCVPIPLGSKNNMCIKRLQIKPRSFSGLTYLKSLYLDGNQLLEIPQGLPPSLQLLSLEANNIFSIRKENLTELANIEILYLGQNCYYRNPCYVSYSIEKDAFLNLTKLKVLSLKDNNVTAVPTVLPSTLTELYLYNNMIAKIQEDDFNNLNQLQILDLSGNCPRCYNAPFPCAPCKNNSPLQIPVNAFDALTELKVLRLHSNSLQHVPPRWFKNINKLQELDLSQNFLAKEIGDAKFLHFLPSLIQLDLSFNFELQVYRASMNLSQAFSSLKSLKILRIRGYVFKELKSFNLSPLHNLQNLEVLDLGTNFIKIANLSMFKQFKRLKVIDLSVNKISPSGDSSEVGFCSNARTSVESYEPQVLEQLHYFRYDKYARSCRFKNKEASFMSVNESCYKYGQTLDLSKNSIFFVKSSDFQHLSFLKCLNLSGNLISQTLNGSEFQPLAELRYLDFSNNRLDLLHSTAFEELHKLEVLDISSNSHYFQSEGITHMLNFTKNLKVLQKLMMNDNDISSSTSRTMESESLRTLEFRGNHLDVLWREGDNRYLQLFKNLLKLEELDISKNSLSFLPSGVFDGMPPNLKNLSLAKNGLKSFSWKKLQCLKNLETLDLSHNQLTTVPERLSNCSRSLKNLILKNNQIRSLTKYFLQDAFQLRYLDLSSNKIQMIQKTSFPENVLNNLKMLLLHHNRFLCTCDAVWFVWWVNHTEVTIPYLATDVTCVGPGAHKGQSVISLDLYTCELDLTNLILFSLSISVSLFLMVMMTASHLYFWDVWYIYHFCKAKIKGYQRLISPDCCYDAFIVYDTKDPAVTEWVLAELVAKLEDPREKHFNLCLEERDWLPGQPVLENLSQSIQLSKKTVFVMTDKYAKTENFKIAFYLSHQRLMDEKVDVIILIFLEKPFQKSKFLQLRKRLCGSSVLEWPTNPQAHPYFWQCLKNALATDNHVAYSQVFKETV
Method in brief: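 HEK293-Blue-hTLR7 cells with NF-κB/AP-1-driven SEAP reporter exposed to serially diluted compound (1% DMSO) for 20 hrs at 37° C. Supernatant SEAP measured with QUANTI-Blue after 2 hrs at 37° C, absorbance 620~655 nm; agonism expressed as EC50.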

[1] = Single dose PK study in male Wister-Han rats; format: in vivo; conditions: 5 mg/kg oral dosing of active form; for concentration at 7 h: 7 hrs (footnote), read-out: Mean plasma concentration (nM), 7 hrs (row 8*)
Experimental: The single dose PK in Male Wister-Han Rats was performed to assess pharmacokinetic properties of tested compounds. Two groups of animals were dosed via Gavage (POE) of the respective compound. […] Blood samples were placed into tubes containing EDTA-K2 anticoagulant and centrifuged at 5000 rpm for 6 min at 4° C. to separate plasma from the samples. After centrifugation, the resulting plasma was transferred to clean tubes for bioanalysis of both prodrug and active form on LC/MS/MS. In the groups that prodrug were dosed, the concentration of prodrugs in the plasma samples was under the detection limit. The “tested compound” in Table 8 was used as the internal standard for testing the metabolite (active form) of “dose compound” in vivo. The pharmacokinetic parameters were calculated using non-compartmental module of WinNonlin® Professional 6.2. The peak concentration (Cmax) was recorded directly from experimental observations. The area under the plasma concentration-time curve (AUC0-t) was calculated using the linear trapezoidal rule up to the last detectable concentration. Cmax and AUC0-last are two critical PK parameters related to the in vivo efficacy of the tested compound. Compounds with higher Cmax and AUC0-last will lead to the better in vivo efficacy.

LYSA solubility study = format: physicochemical; conditions: for solubility thermodynamic: phosphate buffer, pH 6.5, aqueous buffer, thermodynamic from solid; for LYSA of Active Forms: aqueous solubility, 0.05M phosphate buffer pH 6.5
Experimental: LYSA study is used to determine the aqueous solubility of tested compounds. Samples were prepared in duplicate from 10 mM DMSO stock solution. After evaporation of DMSO with a centrifugal vacuum evaporator, the compounds were dissolved in 0.05M phosphate buffer (pH 6.5), stirred for one hour and shaken for two hours. After one night, the solutions were filtered using a microtiter filter plate. Then the filtrate and its 1/10 dilution were analyzed by HPLC-UV. […] The results were in μg/mL. In case the percentage of sample measured in solution after evaporation divided by the calculated maximum of sample amount was bigger than 80%, the solubility was reported as bigger than this value.

[2] = active form, read-out: HEK293-hTLR-7 EC50 (Active form)
[3] = male, Wister-Han, rat, plasma, po, 5 mg/kg
[4] = 0.05M phosphate buffer pH 6.5, read-out: LYSA of Active Forms
[5] = prodrug, read-out: HEK293-hTLR-7 EC50 (Prodrug)
[6] = 0.05M phosphate buffer pH 6.5, read-out: LYSA of Prodrugs

Row | Structure (SMILES) | pEC50 (human TLR7; [2]) | AUC(0-t) [1, 3] [µM·h] | Cmax [1, 3] [nM] | concentration at 0.25 h [1, 3] [nM] | concentration at 0.5 h [1, 3] [nM] | concentration at 1 h [1, 3] [nM] | concentration at 2 h [1, 3] [nM] | concentration at 4 h [1, 3] [nM] | concentration at 7 h [1, 3] [nM] | solubility thermodynamic (LYSA solubility study; [4]) [µg/mL] | Ratio (EC50(prodrug)/EC50(active form)) (human TLR7) | pEC50 (human TLR7; [5]) | solubility thermodynamic (LYSA solubility study; [6]) [µg/mL] | other results
1 | CC[S@](=N)(=O)c1nc(N)c2[nH]c(=O)n(Cc3ccc(Cl)cc3)c2n1 (single isomer, unassigned) [Compound 41c-A] | 7.15 | 0.242 | 32.3 | 16.8 | 27.5 | 32.3 | 27.3 | 27.4 | 18 | 1 (≈ 2.73 µM) | – | – | – | concentration at 24 h [1, 3]: 5.6 nM
2 | CC[S@@](=N)(=O)c1nc(N)c2[nH]c(=O)n(Cc3ccc(Cl)cc3)c2n1 (single isomer, unassigned) [Compound 41c-B] | 7.07 | 0.0558 | 5.46 | 3.41 | 0.75 | 2.04 | 5.46 | 2.52 | 1.21 | 5 (≈ 13.6 µM) | – | – | – | –
3 | CC[S@@](=N)(=O)c1nc(N)c2[nH]c(=O)n(Cc3ccc(C)cc3)c2n1 (single isomer, unassigned) [Compound 43e-A] | 6.96 | 0.077 | 15.2 | 12.6 | 15.2 | 13 | 12 | 8.2 | 6.31 | 13 (≈ 37.5 µM) | – | – | – | –
4 | CCS(=N)(=O)c1nc(N)c2[nH]c(=O)n(Cc3ccc(F)cc3)c2n1 (single isomer, unassigned) [Compound 45e-A] | 6.41 and 6.59 | 0.767 | 80 | 64.6 | 80 | 58.1 | 42.5 | 77.8 | – | – | – | – | – | concentration at 8 h [1, 3]: 34.6 nM; concentration at 24 h [1, 3]: 8.6 nM; LYSA of Active Forms (LYSA solubility study): 90 µg/mL
5 | CCS(=N)(=O)c1nc(N)c2[nH]c(=O)n(Cc3ccc(F)cc3)c2n1 (single isomer, unassigned) [Compound 45e-B] | 6.59 and 6.41 | – | – | – | – | – | – | – | – | – | – | – | – | AUC0-last [1]: 0.568 µM·h; Cmax [1]: 53.9 nM; concentration at 0.25 h ([1]; read-out: Mean plasma concentration (nM), 0.25 h): 42.8 nM; concentration at 0.5 h ([1]; read-out: Mean plasma concentration (nM), 0.5 h): 52.2 nM; concentration at 1 h ([1]; read-out: Mean plasma concentration (nM), 1 h): 37.6 nM; concentration at 2 h ([1]; read-out: Mean plasma concentration (nM), 2 h): 24.2 nM; concentration at 4 h ([1]; read-out: Mean plasma concentration (nM), 4 h): 53.9 nM; concentration at 8 h ([1]; read-out: Mean plasma concentration (nM), 8 h): 29 nM; concentration at 24 h ([1]; read-out: Mean plasma concentration (nM), 24 h): 5.7 nM; LYSA of Active Forms (LYSA solubility study): 115 µg/mL
6 | CCCS(=N)(=O)c1nc(N)c2c(n1)n(Cc1ccccc1)c(=O)n2C(=O)N(C)CCN(C)C(=O)OCC (centres unmarked) [Example 28, Ethyl N-[2-[[6-amino-9-benzyl-8-oxo-2-(propylsulfonimidoyl)purine-7-carbonyl]-methyl-amino]ethyl]-N-methyl-carbamate] | – | – | – | – | – | – | – | – | – | – | 106.2 | 5.16 | 695 (≈ 1300 µM) | –
7 | CCCCN(C)C(=O)OCCN(C)C(=O)n1c(=O)n(Cc2ccccc2)c2nc(S(=N)(=O)CCC)nc(N)c21 (centres unmarked) [Example 29, 2-[[6-Amino-9-benzyl-8-oxo-2-(propylsulfonimidoyl)purine-7-carbonyl]-methyl-amino]ethyl N-butyl-N-methyl-carbamate] | – | – | – | – | – | – | – | – | – | – | 750.8 | 4.31 | 395 (≈ 705 µM) | –
8 | CCCS(=N)(=O)c1nc(N)c2c(n1)n(Cc1ccccc1)c(=O)n2C(=O)N(C)CCOC(=O)N(CC)CC (centres unmarked) [Example 32, 2-[[6-Amino-9-benzyl-8-oxo-2-(propylsulfonimidoyl)purine-7-carbonyl]-methyl-amino]ethyl N,N-diethylcarbamate] | – | – | – | – | – | – | – | – | – | – | 346.2 | 4.65 | 125 (≈ 229 µM) | –
9 | CCCN(C)C(=O)n1c(=O)n(Cc2ccc(C)cc2)c2nc([S@@](=N)(=O)CCC)nc(N)c21 [Example 36-A, 6-Amino-N-methyl-8-oxo-N-propyl-2[S(S)-propylsulfonimidoyl]-9-(p-tolylmethyl)purine-7-carboxamide] | – | – | – | – | – | – | – | – | – | – | 1673.7 | 4.50 | 168 (≈ 366 µM) | –
